Here are results for two molecules from ChEMBL document CHEMBL3580563, “Kaempulchraols A-H, Diterpenoids from the Rhizomes of Kaempferia pulchra Collected in Myanmar” (J Nat Prod, 2015).

The structures appear in SMILES notation. pIC50: −log10 of the molar value.

Common to all, as to assay type: functional, cell-based
One experiment deals with PSN1. Kind of experiment: Antiproliferative activity against human PSN1 cells after 72 hrs by WST8 assay. The conditions noted are these: PSN1, 72 h.
A short description of experiment [1]: Antiproliferative activity against human PANC1 cells after 72 hrs by WST8 assay. The settings on record: PANC-1, 72 h.
A further experiment deals with A549. As to the kind of experiment: Antiproliferative activity against human A549 cells after 72 hrs by WST8 assay. The conditions noted are these: A549, 72 h.
A further experiment deals with MDA-MB-231. As to the kind of experiment: Antiproliferative activity against human MDA-MB-231 cells after 72 hrs by WST8 assay. The settings on record: MDA-MB-231, 72 h.
Experiment [2] in a line: Antiproliferative activity against human TIG3 cells after 72 hrs by WST8 assay. The settings on record: TIG-3, 72 h.

With `C=C[C@]1(C)C=C2CC[C@H]3C(C)(C)[C@H](O)C[C@H](O)[C@]3(C)[C@H]2CC1`, the pIC50 in the experiment with PSN1 is 4.91.
In the case of `O=c1[nH]cc(F)c(=O)[nH]1` [FLUOROURACIL], the pIC50 in experiment [1] is 5.43; with A549, 5.55; with MDA-MB-231 it was 5.28; in experiment [2], 5.08; in the experiment on PSN1, 5.36.
